Patent EP0904070B1, “THE USE OF BUCKMINSTERFULLERENE FOR TREATMENT OF NEUROTOXIC INJURY” (F. HOFFMANN-LA ROCHE AG, priority 1996, dated 1997)

Experiments:
[1] = Solubility in water / aqueous solution; type: physicochemical
Description: Solutions of carboxyfullerene were translucent brown.

[2] = test system: cortical neurons; test: NMDA excitotoxic neuronal injury in neuron-astrocyte co-cultures (LDH efflux); type: cell-based, Mouse; conditions: for reduction of neuronal death from NMDA: 300(M, co-applied with NMDA for 10 minutes, assessed at 24 hours), all experiments performed to date
Description: (§1) Mouse neocortical cultures were prepared as neuron-astrocyte co-cultures (approximately 50% astrocytes) (Rose et al., 1992) or as neuronal cultures (< 2% astrocytes). Mouse embryos (gestational day 15) are removed from pregnant anesthetized Swiss-Webster mice, and the neocortex is dissected away from other brain structures. After brief incubation in trypsin, the cells are dissociated by trituration, and the cell suspension is then diluted into plating medium and plated onto previously-prepared 24-well Plastek culture plates coated with poly-D-lysine/laminin (for neuronal cultures) or onto an existing bed of astrocytes (for co-cultures). After 1-2 days in vitro, a partial exchange with glial conditioned medium is made for "pure" neuronal cultures, and cytosine arabinoside (3µM) is added immediately after feeding to inhibit glial proliferation. Mixed cultures are fed biweekly with growth medium until 11-12 days in vitro, when they are fed with serum-free MS containing 2 mM L-glutamine. Unless otherwise stated, cells were used at 14-16 days in vitro.
Carboxyfullerene (3-300 (M) was co-applied to neuron-astrocyte co-cultures described above with NMDA for assessment of neuroprotection. Brief exposure to NMDA in the presence of the carboxyfullerene was carried out by triple exchange of the medium with HBBSS, followed by addition of 50µM- 500µM NMDA plus carboxyfullerene for 10 minutes. The NMDA and carboxyfullerene were removed by quadruple exchange of the medium with MS, and the cultures were placed in the humidified, CO2 (5%), 37°C incubator for 24 hours, when the extent of injury was assessed.
Neuronal death was assessed at 24 hours after NMDA or AMPA administration by phase contrast microscopy at 200-400x, and by measurement of lactate dehydrogenase (LDH) efflux from dying cells into the bathing medium (Koh and Choi, 1987). Quantitation of cell death was confirmed in some experiments by trypan blue or propidium iodide staining and cell counting.

[3] = test system: cortical neurons; test: AMPA excitotoxic neuronal injury in neuron-astrocyte co-cultures (LDH efflux); type: cell-based, Mouse
Description: as §1, with “Mouse” for “Mouse neocortical cultures were prepared as neuron-astrocyte co-cultures (approximately 50% astrocytes) (Rose et al., 1992) or as neuronal cultures (< 2% astrocytes). Mouse”

[4] = test system: NMDA receptors; test: 45Ca2+ tracer experiments, NMDA-stimulated calcium accumulation in cultured neurons; type: cell-based, Mouse; conditions: co-application of up to 300 (M with NMDA (300 (M), 10 minutes))
Description: To verify that protection against NMDA-induced neuronal cell injury was not due to a reduction in NMDA-induced calcium influx, ^45Ca^2+ tracer studies were performed. Cultures were washed twice with HBBSS and then exposed to NMDA (300 (M), either alone or with C60(C(COOH)2)3, in HBBSS containing tracer ^45Ca^2+ (0.5 (Ci/culture well; NEN, Boston, MA). The exposure was terminated after 10 minutes by exchanging the medium four times with unlabelled HBBSS, followed by lysis of the cells by addition of 0.2% sodium dodecyl sulfate (SDS). The cells were left in SDS for 2 hours, and the lysate was then transferred to scintillation vials. An additional wash of each culture well with SDS was added to the vial, which then underwent (-counting.

[5] = test system: Cortical neurons in glia-deficient culture; test: Serum deprivation apoptotic neuronal death in glia-deficient cultures (trypan blue cell counting); type: cell-based, Mouse; conditions: 10 (M, 48 hours after onset of serum-deprivation); 10 µM
Description: as §1, with “vitro. […]” for “vitro.”
Additionally, neuronal cell death was determined at 48 hours removal of serum by counting cells that are no longer able to exclude trypan blue.

[6] = test system: FALS mice (Gurney GI strain); test: Survival in a transgenic model of amyotrophic lateral sclerosis; type: in vivo; conditions: 15 mg/kg/day, intraperitoneal mini-osmotic pumps from 10 weeks of age
Description: The G1 line, with 18 copies and 4 times the SOD activity of wildtype animals, develops motor neuron death by 3-4 months of age, with hindlimb weakness, impaired grooming, and thinning along their flanks. Affected mice were dead before 5 months of age (Gurney et al., 1994).
C60(C(COOH)2)3 was used to treat FALS mice (Gurney GI strain) to determine its ability to treat FALS. At 10 weeks of age, Alzet mino-osmotic pumps (28 day, 6 (l/day, 15 mg/kg/day) containing C60(C(COOH)2)3 (the mixed isomers, which consist of >90% O-3a) or saline were implanted intraperitoneally. The pumps were replaced at 14 weeks of age. Videotaped assessments of open field walking were performed and scored using the Bresnahan scale for spinal cord injury (Basso et al., 1995). As reported by Gurney and colleagues, these animals develop motor symptoms by approximately 90 days of age, and are moribund between 125 and 145 days of age.
The 8 day increase in survival reached statistical significance (p=0.041), by t-test. There was no difference in survival for FALS mice who received no pumps (123 days, n=4) or those treated with saline-filled pumps (125 days, n=6).

[7] = test system: wild-type animals; test: Tolerability in wild-type animals treated two months; type: in vivo, mice; conditions: 15 mg/kg/day
[8] = Spin-trap (DMPO) electron paramagnetic resonance spectroscopy, hydroxyl radical scavenging; conditions: for scavenging of •OH by EPR: •OH from 100 µM H2O2 in Fe2+ (Fenton reaction), 100 mM DMPO, 4 µM compound
Description: Hydroxyl radical (spectra on left): ^•OH in the presence of DMPO alone (top), in the presence of 4 µM O-3a (middle), or in the presence of 4 µM R-3b (bottom). Superoxide radical (right): O2^•- in DMPO alone (top), in the presence of 400 µM O-3a (middle), in the presence of 400 µM R-3b (bottom). The arrow designates a spurious signal due to an unknown radical in the cavity. The sample was analyzed in a quartz flat cell (60 x 10 x 0.25 mm) in a Bruker 200, X-band EPR spectrometer. Settings were power = 1.6 mW, modulation = 1 G, field modulation = 100 Hz, R.G. = 3.2x10^5.

[9] = Spin-trap (DMPO) electron paramagnetic resonance spectroscopy, superoxide radical scavenging (xanthine + xanthine oxidase); conditions: compound co-incubated with xanthine oxidase and xanthine
[10] = Spin-label/EPR membrane experiments (5- or 16-doxyl ketostearic acid in brain lipids); type: physicochemical, mouse; conditions: for Lipid/aqueous partition factor: f = hL/hA, measured for 16-doxylstearic acid
Description: Values are mean ± SEM, n=8-12 per conditions. * = p<0.05 vs. untreated injury condition, using ANOVA followed by Student-Newman-Keuls test for multiple comparisons. ** = p<0.05 R-3b different than O-3a. […] The spin labels were added to lipids extracted from adult mouse brain at a ratio of 1:100. EPR settings were the same as those listed in the legend for Figure 9. Both isomers produce a shift in the order parameter (S) of the 5-doxyl group, but O-3a produced a greater change in S (Table 1).

[11] = test system: endothelial cell cultures; test: Protection from injury in endothelial cell cultures; type: cell-based; conditions: compared with R-3b
[12] = test system: hepatocytes; test: Protection from injury in hepatocytes; type: cell-based; conditions: compared with R-3b

C60(C(COOH)2)3
soluble in water [1]: at least 50 mM
reduction of neuronal death from NMDA [2]: nearly complete protection
reduction of neuronal death from NMDA ([2]; 300 µM): at least 60%
reduction in neuronal cell death (NMDA) ([2]; pooled data from three experiments (Fig. 5)): 75%
reduction of neuronal cell death from AMPA ([3]; 100 (M, 24 hours exposure, MK-801 (10 (M) included, data from 4 experiments pooled)), 100 µM): > 80%
45Ca2+ accumulation [4]: not affected
reduction in neuronal death (serum deprivation) [5]: 50%
onset of symptoms [6]: delay in onset of symptoms
delay in death ([6]; versus saline, p = 0.041, mixed isomers, >90% O-3a): 8 ± 2.2 days
adverse health or behavioral effects ([7]; n=6): no adverse health or behavioral effects
weights versus untreated littermates ([7]; within genders): similar

C60(C(COOH)2)3 [Compound O-3a]
hydroxyl radical (spin adduct DMPO-OH) EPR signal ([8]; 150 (M compound included with H2O2, 15 minute period)): elimination of this OH signal
scavenging of •OH by EPR [8]: extremely potent scavengers
superoxide radical (spin adduct DMPO-OOH) EPR signal [9]: eliminated the superoxide radical signal
protection from injury produced by application of NMDA, compared with R-3b ([2]; Fig. 10 A, n=8-12 per condition): slightly better protection
protection against AMPA-induced neuronal death, compared with R-3b ([3]; Fig. 10 B, n=8-12 per condition): substantially better protection
Lipid/aqueous partition factor [10]: 1.0 ± 0.2
entry into the lipid bilayer ([10]; inferred from order parameter and 16-doxyl signal): to a greater extent than R-3b
protection from injury in endothelial cell cultures [11]: enhanced protection over R-3b
protection from injury in hepatocytes [12]: enhanced protection over R-3b

C60(C(COOH)2)3 [Compound R-3b]
scavenging of •OH by EPR [8]: extremely potent scavengers
superoxide radical (spin adduct DMPO-OOH) EPR signal [9]: eliminated the superoxide radical signal
neuroprotective activity (in words) ([2]; excitotoxic injury by NMDA and AMPA, insult not stated separately): effective neuroprotectant
Lipid/aqueous partition factor [10]: 0.6
